Experimental data reported in patent publication US4396543A.
≈ marks a conversion by molar mass, not a printed value. Where “and” joins values, the source holds several entries; their conditions need not be identical. Equal entries are not always repeated.

Assays:
[1] = tested on: Streptococcus Group D X66; assay: agar-dilution MIC; format: cell-based; settings: two values = two experiments, 2 median of five, 19 median of three
Method: (§1) In Table VII activity is measured by the minimal inhibitory concentration (MIC), i.e. the lowest concentration of compound at which growth of the microorganism is inhibited by the test compound.

[2] = tested on: Streptococcus Group D 9960; assay: agar-dilution MIC; format: cell-based; settings: two values = two experiments, 2 median of five, 19 median of three
Method: as §1

[3] = tested on: Staphylococcus aureus X400; assay: agar-dilution MIC; format: cell-based; settings: Staphylococcus aureus X400, methicillin-resistant strain; two values = two experiments; 2 median of five, 19 median of three
Method: as §1

Streptococcus pyogenes = assay: in vivo experimental bacterial infection, ED50; settings: mice; for ED50 Values Streptococcus pyogenes Oral: two doses orally; for ED50 Values Streptococcus pyogenes Subcutaneous: two doses subcutaneously, two values = two experiments
toxicity test, LD50 = settings: mouse, in vivo, iv; administered intravenously; read-out: LD50 (mg/kg) in Mice
[4] = tested on: Staphylococcus epidermidis EPI2; assay: agar-dilution MIC; format: cell-based; settings: two values = two experiments, 2 median of five, 19 median of three
[5] = tested on: Staphylococcus aureus V41; assay: agar-dilution MIC; format: cell-based; settings: Staphylococcus aureus V41, penicillin-resistant strain; two values = two experiments; 2 median of five, 19 median of three
Method: as §1

[6] = tested on: Staphylococcus aureus X1.1; assay: agar-dilution MIC; format: cell-based; settings: two values = two experiments, 2 median of five, 19 median of three experiments
Method: as §1

Staphylococcus aureus = assay: in vivo experimental bacterial infection, ED50; settings: mice, two doses subcutaneously; two values = two experiments
[7] = tested on: Staphylococcus epidermidis EPI1; format: cell-based; settings: two values = two experiments, 2 median of five, 19 median of three
[8] = tested on: Streptococcus pyogenes C203; assay: agar-dilution MIC; format: cell-based; settings: two values = two experiments, 2 median of five, 19 median of three

Row | SMILES | MIC [1] | MIC [2] | MIC [3] | ED50 Values Streptococcus pyogenes Oral (Streptococcus pyogenes) | ED50 Values Streptococcus pyogenes Subcutaneous (Streptococcus pyogenes) | LD50 (toxicity test, LD50) | MIC [4] | MIC [5] | MIC [6] | ED50 Values Staphylococcus aureus Subcutaneous (Staphylococcus aureus) | MIC [7] | MIC [8]
1 | CCCCCC(=O)N[C@@H](Cc1c[nH]c2ccccc12)C(=O)NCCC[C@@H]1NC(=O)CNC(=O)[C@@H](NC(=O)[C@H](CC(=O)O)NC(=O)[C@@H](CC(N)=O)NC(=O)[C@H](Cc2c[nH]c3ccccc23)NC(=O)CCCCCCCCC(C)CC)[C@@H](C)OC(=O)[C@H](CC(=O)c2ccccc2N)NC(=O)[C@H]([C@H](C)CC(=O)O)NC(=O)[C@@H](CO)NC(=O)CNC(=O)[C@H](CC(=O)O)NC(=O)[C@@H](C)NC(=O)[C@H](CC(=O)O)NC1=O (stereo partly drawn) [Compound 29] | 8 µg/mL (≈ 4.11 µM) | 32 µg/mL (≈ 16.4 µM) | 1 µg/mL (≈ 0.514 µM) | > 200 mg/kg × 2 | 10.6 mg/kg × 2 | 37.5 mg/kg |  |  |  |  |  | 
2 | CCCCCCCCCCCCCC(=O)N[C@@H](Cc1ccccc1)C(=O)N[C@@H](Cc1c[nH]c2ccccc12)C(=O)N[C@H](CC(N)=O)C(=O)N[C@@H](CC(=O)O)C(=O)N[C@@H]1C(=O)NCC(=O)N[C@@H](CCCN)C(=O)N[C@@H](CC(=O)O)C(=O)N[C@H](C)C(=O)N[C@@H](CC(=O)O)C(=O)NCC(=O)N[C@H](CO)C(=O)N[C@@H]([C@H](C)CC(=O)O)C(=O)N[C@@H](CC(=O)c2ccccc2N)C(=O)O[C@@H]1C [Compound 22] | 1 µg/mL (≈ 0.548 µM) | 0.5 µg/mL (≈ 0.274 µM) | 2 µg/mL (≈ 1.1 µM) | > 200 mg/kg × 2 | < 0.27 mg/kg × 2 and 0.36 mg/kg × 2 |  | 4 µg/mL (≈ 2.19 µM) | 1 µg/mL (≈ 0.548 µM) | 0.5 µg/mL (≈ 0.274 µM) | 4.8 mg/kg × 2 | 4 µg/mL (≈ 2.19 µM) | 0.25 µg/mL (≈ 0.137 µM)
3 | CCCCCCCCC(=O)N[C@@H](Cc1ccccc1)C(=O)N[C@@H](Cc1c[nH]c2ccccc12)C(=O)N[C@H](CC(N)=O)C(=O)N[C@@H](CC(=O)O)C(=O)N[C@@H]1C(=O)NCC(=O)N[C@@H](CCCN)C(=O)N[C@@H](CC(=O)O)C(=O)N[C@H](C)C(=O)N[C@@H](CC(=O)O)C(=O)NCC(=O)N[C@H](CO)C(=O)N[C@@H]([C@H](C)CC(=O)O)C(=O)N[C@@H](CC(=O)c2ccccc2N)C(=O)O[C@@H]1C [Compound 18] | 32 µg/mL (≈ 18.2 µM) | 8 µg/mL (≈ 4.56 µM) | 4 µg/mL (≈ 2.28 µM) | 184 mg/kg × 2 | 0.59 mg/kg × 2 | > 600 mg/kg | 2 µg/mL (≈ 1.14 µM) | 2 µg/mL (≈ 1.14 µM) | 2 µg/mL (≈ 1.14 µM) | 1.38 mg/kg × 2 | 4 µg/mL (≈ 2.28 µM) | 0.5 µg/mL (≈ 0.285 µM)
4 | CCCCCCCCCCCC(=O)N[C@H](Cc1ccccc1)C(=O)N[C@@H](Cc1c[nH]c2ccccc12)C(=O)N[C@H](CC(N)=O)C(=O)N[C@@H](CC(=O)O)C(=O)N[C@@H]1C(=O)NCC(=O)N[C@@H](CCCN)C(=O)N[C@@H](CC(=O)O)C(=O)N[C@H](C)C(=O)N[C@@H](CC(=O)O)C(=O)NCC(=O)N[C@H](CO)C(=O)N[C@@H]([C@H](C)CC(=O)O)C(=O)N[C@@H](CC(=O)c2ccccc2N)C(=O)O[C@@H]1C [Compound 1] | 1 µg/mL (≈ 0.557 µM) | 0.5 µg/mL (≈ 0.278 µM) | 1 µg/mL (≈ 0.557 µM) | > 200 mg/kg × 2 | < 0.25 mg/kg × 2 and 0.21 mg/kg × 2 | 250 mg/kg | 1 µg/mL (≈ 0.557 µM) | 0.5 µg/mL (≈ 0.278 µM) | 0.5 µg/mL (≈ 0.278 µM) | 1.4 mg/kg × 2 and 2.05 mg/kg × 2 | 2 µg/mL (≈ 1.11 µM) | 0.125 µg/mL (≈ 0.0696 µM)
5 | CCCCCCCCCCC(=O)N[C@@H](Cc1ccccc1)C(=O)N[C@@H](Cc1c[nH]c2ccccc12)C(=O)N[C@H](CC(N)=O)C(=O)N[C@@H](CC(=O)O)C(=O)N[C@@H]1C(=O)NCC(=O)N[C@@H](CCCN)C(=O)N[C@@H](CC(=O)O)C(=O)N[C@H](C)C(=O)N[C@@H](CC(=O)O)C(=O)NCC(=O)N[C@H](CO)C(=O)N[C@@H]([C@H](C)CC(=O)O)C(=O)N[C@@H](CC(=O)c2ccccc2N)C(=O)O[C@@H]1C [Compound 20] | 4 µg/mL (≈ 2.24 µM) | 2 µg/mL (≈ 1.12 µM) | 2 µg/mL (≈ 1.12 µM) | > 200 mg/kg × 2 | 0.35 mg/kg × 2 | 400 mg/kg | 2 µg/mL (≈ 1.12 µM) | 0.5 µg/mL (≈ 0.281 µM) | 0.5 µg/mL (≈ 0.281 µM) | 1.25 mg/kg × 2 | 2 µg/mL (≈ 1.12 µM) | 0.125 µg/mL (≈ 0.0701 µM)
6 | CCCCCCCCCCC(=O)N[C@@H](Cc1ccccc1)C(=O)NCCC[C@@H]1NC(=O)CNC(=O)[C@@H](NC(=O)[C@H](CC(=O)O)NC(=O)[C@@H](CC(N)=O)NC(=O)[C@@H](N)Cc2c[nH]c3ccccc23)[C@@H](C)OC(=O)[C@H](CC(=O)c2ccccc2N)NC(=O)[C@H]([C@H](C)CC(=O)O)NC(=O)[C@@H](CO)NC(=O)CNC(=O)[C@H](CC(=O)O)NC(=O)[C@@H](C)NC(=O)[C@H](CC(=O)O)NC1=O [Compound 26] | > 128 µg/mL | 32 µg/mL (≈ 18 µM) | > 128 µg/mL | > 200 mg/kg × 2 | > 18 mg/kg × 2 |  | > 128 µg/mL | > 128 µg/mL | 8 µg/mL (≈ 4.49 µM) | 9.2 mg/kg × 2 | > 128 µg/mL | 1 µg/mL (≈ 0.561 µM)
7 | CCCCCCCC(=O)N[C@@H](Cc1ccccc1)C(=O)N[C@@H](Cc1c[nH]c2ccccc12)C(=O)N[C@H](CC(N)=O)C(=O)N[C@@H](CC(=O)O)C(=O)N[C@@H]1C(=O)NCC(=O)N[C@@H](CCCN)C(=O)N[C@@H](CC(=O)O)C(=O)N[C@H](C)C(=O)N[C@@H](CC(=O)O)C(=O)NCC(=O)N[C@H](CO)C(=O)N[C@@H]([C@H](C)CC(=O)O)C(=O)N[C@@H](CC(=O)c2ccccc2N)C(=O)O[C@@H]1C [Compound 17] | 128 µg/mL (≈ 73.6 µM) | 32 µg/mL (≈ 18.4 µM) | 8 µg/mL (≈ 4.6 µM) | > 200 mg/kg × 2 | 1.48 mg/kg × 2 | 450 mg/kg | 8 µg/mL (≈ 4.6 µM) | 8 µg/mL (≈ 4.6 µM) | 4 µg/mL (≈ 2.3 µM) | 2.58 mg/kg × 2 | 8 µg/mL (≈ 4.6 µM) | 2 µg/mL (≈ 1.15 µM)
8 | CCCCCCCCCCCCC(=O)N[C@@H](Cc1ccccc1)C(=O)N[C@@H](Cc1c[nH]c2ccccc12)C(=O)N[C@H](CC(N)=O)C(=O)N[C@@H](CC(=O)O)C(=O)N[C@@H]1C(=O)NCC(=O)N[C@@H](CCCN)C(=O)N[C@@H](CC(=O)O)C(=O)N[C@H](C)C(=O)N[C@@H](CC(=O)O)C(=O)NCC(=O)N[C@H](CO)C(=O)N[C@@H]([C@H](C)CC(=O)O)C(=O)N[C@@H](CC(=O)c2ccccc2N)C(=O)O[C@@H]1C [Compound 21] | 1 µg/mL (≈ 0.553 µM) | 0.25 µg/mL (≈ 0.138 µM) | 2 µg/mL (≈ 1.11 µM) | > 200 mg/kg × 2 | 0.14 mg/kg × 2 |  | 2 µg/mL (≈ 1.11 µM) | 0.5 µg/mL (≈ 0.276 µM) | 0.5 µg/mL (≈ 0.276 µM) | 0.76 mg/kg × 2 | 2 µg/mL (≈ 1.11 µM) | 0.125 µg/mL (≈ 0.0691 µM)
9 | CCCCCCCCCCCC(=O)Nc1ccc(C(=O)N[C@@H](Cc2c[nH]c3ccccc23)C(=O)N[C@H](CC(N)=O)C(=O)N[C@@H](CC(=O)O)C(=O)N[C@@H]2C(=O)NCC(=O)N[C@@H](CCCN)C(=O)N[C@@H](CC(=O)O)C(=O)N[C@H](C)C(=O)N[C@@H](CC(=O)O)C(=O)NCC(=O)N[C@H](CO)C(=O)N[C@@H]([C@H](C)CC(=O)O)C(=O)N[C@@H](CC(=O)c3ccccc3N)C(=O)O[C@@H]2C)cc1 [Compound 4] |  |  | 8 µg/mL (≈ 4.53 µM) | > 200 mg/kg × 2 | 18.8 mg/kg × 2 | > 300 mg/kg |  |  | 4 µg/mL (≈ 2.26 µM) | < 5 mg/kg × 2 |  | 
